Experimental findings from patent US10064867B2, “Hsp90 inhibitors” (Sloan-Kettering Institute for Cancer Research, priority 2011, dated 2018) are described below.

Data set [1] concerns the target Hsp90. Description: Hsp90 Binding Assay (fluorescence polarization, cy3B-GM displacement, SKBr3 lysate). Also noted: species or system human. Conditions: read-out: SKBr3 Binding Affinity.
Data set [2] deals with hERG (Homo sapiens, UniProt Q12809). In words: hERG binding. An excerpt: In interpreting these test results, it will be appreciated that binding to Hsp90 for activity in the treatment of cancer or neurodegenerative disorders is desirable. In contrast, it is generally undesirable to have binding to hERG since binding to hERG can result in undesirable cardiac side effects. Therefore, having a low value for binding to Hsp90 and a high value for binding to hERG is desirable, bearing in mind that the units for the two measurement are different.
(In general: Block of hERG is tested as a sign of cardiac risk.)

Where [3] appears, read: human cancer cell lysate (SKBr3), cy3B-GM displacement, 4° C., 24 h.

SMILES strings stand for the structures. Like-named read-outs stand apart in the source and are kept apart here.

Sequence of hERG (Q12809 whole entry): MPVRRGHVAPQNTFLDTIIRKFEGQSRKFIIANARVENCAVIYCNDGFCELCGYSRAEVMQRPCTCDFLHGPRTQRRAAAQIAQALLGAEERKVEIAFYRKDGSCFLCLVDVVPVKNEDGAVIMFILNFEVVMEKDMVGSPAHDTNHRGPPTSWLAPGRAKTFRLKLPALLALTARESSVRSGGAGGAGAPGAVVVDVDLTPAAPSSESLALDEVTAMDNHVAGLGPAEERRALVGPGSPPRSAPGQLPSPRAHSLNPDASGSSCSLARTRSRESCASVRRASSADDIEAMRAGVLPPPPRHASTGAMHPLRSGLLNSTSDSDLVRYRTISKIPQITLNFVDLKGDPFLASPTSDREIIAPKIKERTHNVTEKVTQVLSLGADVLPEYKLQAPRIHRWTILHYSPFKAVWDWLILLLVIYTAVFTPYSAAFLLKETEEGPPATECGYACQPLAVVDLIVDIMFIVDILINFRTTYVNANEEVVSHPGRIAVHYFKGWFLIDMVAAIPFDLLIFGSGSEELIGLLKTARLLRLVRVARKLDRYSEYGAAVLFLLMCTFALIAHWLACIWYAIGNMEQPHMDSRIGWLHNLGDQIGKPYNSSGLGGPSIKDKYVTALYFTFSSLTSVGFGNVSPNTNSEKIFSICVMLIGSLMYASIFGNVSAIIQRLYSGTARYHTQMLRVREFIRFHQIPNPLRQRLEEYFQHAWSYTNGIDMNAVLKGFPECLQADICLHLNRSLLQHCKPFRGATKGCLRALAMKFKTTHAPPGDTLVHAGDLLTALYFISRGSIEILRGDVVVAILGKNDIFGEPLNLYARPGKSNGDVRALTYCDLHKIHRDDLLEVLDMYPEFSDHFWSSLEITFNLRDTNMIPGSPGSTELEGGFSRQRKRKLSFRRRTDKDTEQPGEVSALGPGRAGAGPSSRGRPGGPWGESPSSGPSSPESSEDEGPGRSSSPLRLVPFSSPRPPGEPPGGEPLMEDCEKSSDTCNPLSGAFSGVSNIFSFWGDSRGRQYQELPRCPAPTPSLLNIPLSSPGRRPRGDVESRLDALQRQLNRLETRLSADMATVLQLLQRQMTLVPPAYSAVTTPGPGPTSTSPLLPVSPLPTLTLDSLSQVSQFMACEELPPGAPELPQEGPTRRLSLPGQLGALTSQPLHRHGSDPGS

For the compound `CC(C)NCCCn1c(Sc2cc3c(cc2N(C)C)OCO3)nc2c(N)ncnc21` [DZ4-134, 8-(6-(Dimethylamino)benzo[d][1,3]dioxol-5-ylthio)-9-(3-(isopropylamine)propyl)-9H-purin-6-amine], the IC50 in data set [1] (setting [3]) came to 55.3 nM. For the same compound, the hERG binding in data set [2] came to 11.0 µM.
For `CN(C)c1cc2c(cc1Sc1nc3c(N)ncnc3n1CCCNC(C)(C)C)OCO2` [DZ4-135, 9-(3-(tert-Butylamino)propyl)-8-(6-(dimethylamino)benzo[d][1,3]dioxol-5-ylthio)-9H-purin-6-amine], in that order: 45.4 nM and 14.0 µM.
With `CC(C)NCCCn1c(Sc2cc3c(cc2I)OCO3)nc2c(N)ncnc21` [PU-H71, reference compound], in data set [1], the IC50 was […]. This compound also showed a hERG binding in data set [2] of 1 µM.
